From patent US20090137572A1, “2-substituted-4-heteroaryl-pyrimidines useful for the treatment of proliferative disorders” (priority 2004, published 2009)

How the values were obtained:
CDK2-cycline E = CDK2-cycline E (Homo sapiens, UniProt P24941); assay: Kinase assay (radioactive phosphate incorporation), CDK2-cyclin E; assay type: biochemical; conditions: read-out: Kinase Inhibition pIC50 CDK2-cycline E (converted)
Procedure: Kinase assays. The compounds of the invention above were investigated for their ability to inhibit the enzymatic activity of various protein kinases (Table 2). This was achieved by measurement of incorporation of radioactive phosphate from ATP into appropriate polypeptide substrates. Recombinant protein kinases and kinase complexes were produced or obtained commercially. Assays were performed using 96-well plates and appropriate assay buffers (typically 25 mM β-glycerophosphate, 20 mM MOPS, 5 mM EGTA, 1 mM DTT, 1 mM […], pH 7.4), into which were added 2-4 μg of active enzyme with appropriate substrates. The reactions were initiated by addition of Mg/ATP mix (15 mM MgCl2+100 μM ATP with 30-50 kBq per well of [γ-^32P]-ATP) and mixtures incubated as required at 30° C. Reactions were stopped on ice, followed by filtration through p81 filterplates or GF/C filterplates (Whatman Polyfiltronics, Kent, UK). After washing 3 times with 75 mM aq orthophosphoric acid, plates were dried, scintillant added and incorporated radioactivity measured in a scintillation counter (TopCount, Packard Instruments, Pangbourne, Berks, UK). Compounds for kinase assay were made up as 10 mM stocks in DMSO and diluted into 10% DMSO in assay buffer.

Aurora A kinase = molecular target: T1, Aurora A kinase (Homo sapiens, UniProt O14965); assay: Aurora-A (human) kinase assay (Kemptide substrate); assay type: biochemical; conditions: pIC50 is -log(IC50, M), 15 μM ATP; for IC50: read-out: Kinase Inhibition pIC50 Aurora A kinase (converted)
T1 construct: purchased
T1 sequence (O14965 1-403): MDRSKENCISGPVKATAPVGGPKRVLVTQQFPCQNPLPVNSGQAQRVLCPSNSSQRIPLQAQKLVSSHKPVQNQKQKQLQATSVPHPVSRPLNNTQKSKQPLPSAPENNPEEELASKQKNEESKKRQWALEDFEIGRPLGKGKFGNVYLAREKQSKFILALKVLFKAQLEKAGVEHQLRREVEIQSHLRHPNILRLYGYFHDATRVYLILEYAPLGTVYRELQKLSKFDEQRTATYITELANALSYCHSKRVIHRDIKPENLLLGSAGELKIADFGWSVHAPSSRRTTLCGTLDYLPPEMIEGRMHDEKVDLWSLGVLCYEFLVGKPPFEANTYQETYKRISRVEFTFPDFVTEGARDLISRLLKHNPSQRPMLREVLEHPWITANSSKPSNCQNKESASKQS
Procedure: Aurora-A (human) kinase assay. This was achieved by measurement of incorporation of radioactive phosphate from ATP into Kemptide substrate (LRRASLG), upon phosphorylation by commercially obtained aurora-A kinase. Assays were performed using 96-well plates and appropriate assay buffers (8 mM MOPS, 0.2 mM EDTA, pH 7.0), into which were added 5-10 ng of active enzyme with 200 μM substrate (Kemptide). The reactions were initiated by addition of Mg/ATP mix (10 mM MgAcetate+15 μM ATP with 30-50 kBq per well of [γ-^33P]-ATP) and mixtures incubated for 40 min at room temperature. Reactions were stopped by addition of 3% phosphoric acid, followed by filtration through p81 filterplates (Whatman Polyfiltronics, Kent, UK). After washing 5 times with 75 mM aq orthophosphoric acid and once in methanol, plates were dried, scintillant added and incorporated radioactivity measured in a scintillation counter (TopCount, Packard Instruments, Pangbourne, Berks, UK). Compounds for kinase assay were made up as 10 mM stocks in DMSO and diluted into 10% DMSO in assay buffer.

Row | Compound | IC50 (CDK2-cycline E) [nM] | IC50 (Aurora A kinase) [nM] | Kinase Inhibition pIC50 Aurora A kinase (Aurora A kinase)
1 | COCCNS(=O)(=O)c1ccc(Nc2nccc(-c3sc(C)nc3C)n2)cc1 [Compound 43, 4-[4-(2,4-Dimethyl-thiazol-5-yl)-pyrimidin-2-ylamino]-N-(2-methoxy-ethyl)-benzenesulfonamide] | 10 | 126 | –
2 | CCc1cc(-c2nc(C)c(-c3ccnc(Nc4cccc(CNC(C)=O)c4)n3)s2)ccn1 [Compound 105, N-(3-{4-[2-(2-Ethyl-pyridin-4-yl)-4-methyl-thiazol-5-yl]-pyrimidin-2-ylamino}-benzyl)-acetamide] | – | 316 | –
3 | CCNc1nc(C)c(-c2ccnc(Nc3ccc(N4CCOCC4)c(Cl)c3)n2)s1 [Compound 134, (3-Chloro-4-morpholin-4-yl-phenyl)-[4-(2-ethylamino-4-methyl-thiazol-5-yl)-pyrimidin-2-yl]-amine] | 200 | 126 | –
4 | Cc1nc(C)c(-c2ccnc(Nc3ccc(N4CCOCC4)cc3C)n2)s1 [Compound 139, [4-(2,4-Dimethyl-thiazol-5-yl)-pyrimidin-2-yl]-(2-methyl-4-morpholin-4-yl-phenyl)-amine] | – | 1580 | –
5 | Cc1ccc(-c2nc(C)c(-c3ccnc(Nc4ccc(N5CCOCC5)cc4)n3)s2)c(C)c1 [Compound 140, {4-[2-(2,4-Dimethyl-phenyl)-4-methyl-thiazol-5-yl]-pyrimidin-2-yl}-(4-morpholin-4-yl-phenyl)-amine] | – | 1580 | –
6 | Cc1nc(C)c(-c2ccnc(Nc3ccc(N4CCOCC4)c(Cl)c3)n2)s1 [Compound 141, (3-Chloro-4-morpholin-4-yl-phenyl)-[4-(2,4-dimethyl-thiazol-5-yl)-pyrimidin-2-yl]-amine] | 794 | 158 | –
7 | Cc1nc(NC(C)(C)C)sc1-c1ccnc(Nc2ccc(N3CCOCC3)cc2)n1 [Compound 143, [4-(2-tert-Butylamino-4-methyl-thiazol-5-yl)-pyrimidin-2-yl]-(4-morpholin-4-yl-phenyl)-amine] | 126 | 50.1 | –
8 | COCCNc1nc(C)c(-c2ccnc(Nc3ccc(N4CCOCC4)cc3)n2)s1 [Compound 144, {4-[2-(2-Methoxy-ethylamino)-4-methyl-thiazol-5-yl]-pyrimidin-2-yl}-(4-morpholin-4-yl-phenyl)-amine] | 251 | 100 | –
9 | CCNc1nc(C)c(-c2ccnc(Nc3ccc(N4CCOCC4)cc3C)n2)s1 [Compound 146, [4-(2-Ethylamino-4-methyl-thiazol-5-yl)-pyrimidin-2-yl]-(2-methyl-4-morpholin-4-yl-phenyl)-amine] | – | 2510 | –
10 | Cc1nc(-c2ccc(N3CCOCC3)cc2)sc1-c1ccnc(Nc2ccc(N3CCOCC3)cc2)n1 [Compound 147, {4-[4-Methyl-2-(4-morpholin-4-yl-phenyl)-thiazol-5-yl]-pyrimidin-2-yl}-(4-morpholin-4-yl-phenyl)-amine] | – | 501 | –
11 | Cc1nc(N(C)c2cccnc2)sc1-c1ccnc(Nc2ccc(N3CCOCC3)cc2)n1 [Compound 153, {4-[4-Methyl-2-(methyl-pyridin-3-yl-amino)-thiazol-5-yl]-pyrimidin-2-yl}-(4-morpholin-4-yl-phenyl)-amine] | – | – | 6.1
12 | Cc1nc(-c2cccnc2)sc1-c1ccnc(Nc2ccc3c(c2)OCCO3)n1 [Compound 180, (2,3-Dihydro-benzo[1,4]dioxin-6-yl)-[4-(4-methyl-2-pyridin-3-yl-thiazol-5-yl)-pyrimidin-2-yl]-amine] | – | 1580 | –
13 | Cc1nc(NCCc2ccccc2)sc1-c1ccnc(Nc2ccc3c(c2)OCCO3)n1 [Compound 183, (2,3-Dihydro-benzo[1,4]dioxin-6-yl)-[4-(4-methyl-2-phenethylamino-thiazol-5-yl)-pyrimidin-2-yl]-amine] | – | 1260 | –
14 | COc1ccc(Nc2nccc(-c3sc(-c4cccnc4)nc3C)n2)cc1C [Compound 186, (4-Methoxy-3-methyl-phenyl)-[4-(4-methyl-2-pyridin-3-yl-thiazol-5-yl)-pyrimidin-2-yl]-amine] | – | 501 | –
15 | Cc1cc(Nc2nccc(-c3sc(CO)nc3C)n2)ccc1N1CCCCC1 [Compound 209, {4-Methyl-5-[2-(3-methyl-4-piperidin-1-yl-phenylamino)-pyrimidin-4-yl]-thiazol-2-yl}-methanol] | – | 251 | –
16 | Cc1nc(C)c(-c2ccnc(Nc3ccc(N4CCOCC4)c(C(N)=O)c3)n2)s1 [Compound 210, 5-[4-(2,4-Dimethyl-thiazol-5-yl)-pyrimidin-2-ylamino]-2-morpholin-4-yl-benzamide] | – | 251 | –
17 | Cc1nc(C)c(-c2ccnc(Nc3ccc(C)c(N4CCOCC4)c3)n2)s1 [Compound 214, [4-(2,4-Dimethyl-thiazol-5-yl)-pyrimidin-2-yl]-(4-methyl-3-morpholin-4-yl-phenyl)-amine] | – | 251 | –

Further lines, results first:

Row | IC50 (CDK2-cycline E) [nM] | IC50 (Aurora A kinase) [nM] | Kinase Inhibition pIC50 Aurora A kinase (Aurora A kinase) | Compound
18 | 1000 | 100 | – | CCN(CC)S(=O)(=O)c1ccc(Nc2nccc(-c3sc(NC)nc3C)n2)cc1 [Compound 52, N,N-Diethyl-4-[4-(4-methyl-2-methylamino-thiazol-5-yl)-pyrimidin-2-ylamino]-benzenesulfonamide]
19 | – | 398 | – | CNc1nc(C)c(-c2ccnc(N)n2)s1 [Compound 85, 4-(4-Methyl-2-methylamino-thiazol-5-yl)-pyrimidin-2-ylamine]
20 | – | 1000 | – | CCNc1nc(C)c(-c2ccnc(N)n2)s1 [Compound 86, 4-(2-Ethylamino-4-methyl-thiazol-5-yl)-pyrimidin-2-ylamine]
21 | – | 158 | – | CCN(C(C)=O)c1nc(C)c(-c2ccnc(N)n2)s1 [Compound 87, N-[5-(2-Amino-pyrimidin-4-yl)-4-methyl-thiazol-2-yl]-N-ethyl-acetamide]
22 | – | 1580 | – | Cc1nc(N(C)C)sc1-c1ccnc(N)n1 [Compound 88, 4-(2-Dimethylamino-4-methyl-thiazol-5-yl)-pyrimidin-2-ylamine]
23 | – | 3160 | – | CCNc1nc(C)c(-c2ccnc(Nc3ccc(OC)cc3C)n2)s1 [Compound 111, [4-(2-Ethylamino-4-methyl-thiazol-5-yl)-pyrimidin-2-yl]-(4-methoxy-2-methyl-phenyl)-amine]
24 | – | 2510 | – | COc1ccc(Nc2nccc(-c3sc(C)nc3C)n2)c(C)c1 [Compound 112, [4-(2,4-Dimethyl-thiazol-5-yl)-pyrimidin-2-yl]-(4-methoxy-2-methyl-phenyl)-amine]
25 | – | 5010 | – | COc1ccc(C)c(Nc2nccc(-c3sc(C)nc3C)n2)c1 [Compound 113, [4-(2,4-Dimethyl-thiazol-5-yl)-pyrimidin-2-yl]-(5-methoxy-2-methyl-phenyl)-amine]
26 | 631 | 100 | – | Cc1nc(CO)sc1-c1ccnc(Nc2ccc(N(C)C)cc2)n1 [Compound 132, {5-[2-(4-Dimethylamino-phenylamino)-pyrimidin-4-yl]-4-methyl-thiazol-2-yl}-methanol]
27 | – | 3980 | – | CNc1nc(C)c(-c2ccnc(Nc3ccc(N4CCOCC4)cc3C)n2)s1 [Compound 145, [4-(4-Methyl-2-methylamino-thiazol-5-yl)-pyrimidin-2-yl]-(2-methyl-4-morpholin-4-yl-phenyl)-amine]
28 | 251 | 398 | – | CNc1ccc(Nc2nccc(-c3sc(C)nc3C)n2)cc1C(F)(F)F [Compound 149, N^4-[4-(2,4-Dimethyl-thiazol-5-yl)-pyrimidin-2-yl]-N^1-methyl-2-trifluoromethyl-benzene-1,4-diamine]
29 | 501 | 200 | – | CCNc1nc(C)c(-c2ccnc(Nc3ccc4c(c3)OCCO4)n2)s1 [Compound 181, (2,3-Dihydro-benzo[1,4]dioxin-6-yl)-[4-(2-ethylamino-4-methyl-thiazol-5-yl)-pyrimidin-2-yl]-amine]
30 | 126 | 63.1 | – | CNc1nc(C)c(-c2ccnc(Nc3ccc(OC)c(C)c3)n2)s1 [Compound 184, (4-Methoxy-3-methyl-phenyl)-[4-(4-methyl-2-methylamino-thiazol-5-yl)-pyrimidin-2-yl]-amine]
